EC50 data for 66 compounds are collected here from BindingDB's records for doi:10.1021/jm00092a019 (Bristol-Myers Squibb Pharmaceutical Research Institute, 1992).

Experiment [1] is described as follows: Inhibition of ADP-induced platelet aggregation in rabbit platelet rich plasma (PRP).
Experiment [2] can be described thus: Inhibition of platelet aggregation using adenosine diphosphate (ADP) as activating agent in human platelet rich plasma (PRP).
A short description of experiment [3]: Inhibition of platelet aggregation using Adenosine diphosphate (ADP) as activating agent in rabbit platelet rich plasma (PRP).
Experiment [4] can be described thus: Inhibition of platelet aggregation using adenosine diphosphate (ADP) as activating agent in human platelet rich plasma PRP.
The nature of experiment [5]: Inhibition of platelet aggregation using Adenosine diphosphate (ADP) as activating agent in rabbit platelet rich plasma (PRP). This is another data set of the same source.
The target in experiment [6] is P2Y purinoceptor 12 (Homo sapiens, UniProt Q9H244). Briefly: Inhibition of platelet aggregation using adenosine diphosphate (ADP) as activating agent in human platelet rich plasma (PRP).
P2Y purinoceptor 12, sequence (Q9H244 whole entry): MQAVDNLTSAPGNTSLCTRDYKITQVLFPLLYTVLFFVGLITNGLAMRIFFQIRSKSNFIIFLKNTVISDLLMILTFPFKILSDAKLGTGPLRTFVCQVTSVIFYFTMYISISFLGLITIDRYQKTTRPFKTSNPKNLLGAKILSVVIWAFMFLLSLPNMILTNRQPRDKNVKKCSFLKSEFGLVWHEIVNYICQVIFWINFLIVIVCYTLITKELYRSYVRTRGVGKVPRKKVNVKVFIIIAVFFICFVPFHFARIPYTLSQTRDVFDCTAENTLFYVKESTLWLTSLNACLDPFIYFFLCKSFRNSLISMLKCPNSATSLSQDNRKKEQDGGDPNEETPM

Take `CC(O)CCCOc1ccc2nc3[nH]c(=O)[nH]c3cc2c1` (stereo unspecified): the results for the EC50 in experiment [1] and in experiment [2] were 520 nM and 100 nM, respectively.

In the case of `CCOC(=O)CN(C(=O)CCCOc1ccc2nc3[nH]c(=O)[nH]c3cc2c1)C1CCCCC1`, the response in experiment [3] was half-maximal at 20 nM (EC50).

For the compound `COC(=O)CCCOc1ccc2nc3[nH]c(=O)[nH]c3cc2c1`, the 50% effective concentration (EC50) (commonly the concentration giving half of the maximal effect) in experiment [4] is 83 nM; in experiment [5], 66 nM.

`O=c1[nH]c2cc3cc(OCCCS(=O)(=O)c4ccccc4)ccc3nc2[nH]1` had an EC50 in experiment [3] of 390 nM.

`CN(C(=O)CCCOc1ccc2c(c1)CN1CC(=O)NC1=N2)C1CCCCC1`: the concentration giving a half-maximal response (EC50) in experiment [2] is 440 nM; in experiment [5] it was 100 nM.

`CN(C(=O)CCCCc1ccc2nc3[nH]c(=O)[nH]c3cc2c1)C1CCCCC1`: the EC50 amounted to 1100 nM in experiment [2] and 210 nM in experiment [5].

Consider `O=C(O)CCCCCOc1ccc2nc3[nH]c(=O)[nH]c3cc2c1`, for which the EC50 in experiment [3] stood at 3170 nM. That is a single-digit micromolar value.

In experiment [3], `N#CCCCCOc1ccc2nc3[nH]c(=O)[nH]c3cc2c1` showed an EC50 of 1320 nM.

In the case of `CCOC(=O)C1CCN(C(=O)CCCOc2ccc3nc4[nH]c(=O)[nH]c4cc3c2)CC1`, it took 210 nM to reach a half-maximal effect in experiment [3] (EC50).

Consider `O=C(CCCCc1ccc2nc3[nH]c(=O)[nH]c3cc2c1)NC12C[C@H]3C[C@@H](C1)C[C@@H](C2)C3`, for which the EC50 is 5260 nM in experiment [2] and 960 nM in experiment [5].

In the case of `CN(C(=O)CCCOc1ccc2nc3[nH]c(=O)[nH]c3cc2c1)C1CCCCCC1`, in experiment [3], the half-maximal effective concentration (EC50) stood at 60 nM.

On to `O=c1[nH]c2cc3cc(OCCCc4nnn[nH]4)ccc3nc2[nH]1`, for which the values for the EC50 in experiment [2] and in experiment [5] were above 100000 nM and 6320 nM, respectively.

As for `O=c1[nH]c2cc3cc(OCCCO)ccc3nc2[nH]1`, the response in experiment [3] was half-maximal at 770 nM (EC50).

The compound `Cn1c(=O)[nH]c2nc3ccc(OCCCC(=O)N4CCCCC4)cc3cc21` had a concentration for a half-maximal effect (EC50) in experiment [3] of 10900 nM.

`CC(=O)CCCOc1ccc2nc3[nH]c(=O)[nH]c3cc2c1` gave an EC50 in experiment [3] of 1400 nM.

Compound `COC(=O)CCCCOc1ccc2nc3[nH]c(=O)[nH]c3cc2c1` gave an EC50 in experiment [3] of 950 nM.

For `CNC(=O)CCCOc1ccc2nc3[nH]c(=O)[nH]c3cc2c1`, the EC50 came out at 71600 nM in experiment [2] and 1330 nM in experiment [3].

As for `O=C(O)CCCCOc1ccc2nc3[nH]c(=O)[nH]c3cc2c1`, the concentration for a half-maximal effect (EC50) in experiment [2] and in experiment [3] was above 106000 nM throughout.

With `COC(=O)CCCCCOc1ccc2nc3[nH]c(=O)[nH]c3cc2c1`, the response in experiment [3] was half-maximal at 90 nM (EC50).

With `CN(C(=O)CCCCOc1ccc2nc3[nH]c(=O)n(C)c3cc2c1)C1CCCCCC1`, the EC50 was 540 nM in experiment [2] and 140 nM in experiment [5].

Turning to `CN(C(=O)CCCCOc1ccc2nc3[nH]c(=O)[nH]c3cc2c1)C1CCCCC1`, the EC50 in experiment [3] worked out at 8 nM. This counts as single-digit nanomolar.

Consider `Cn1c(=O)[nH]c2nc3ccc(OCCCC(=O)NC4CCCCC4)cc3cc21`, for which the EC50 in experiment [2] worked out at 7840 nM; in experiment [3] it was 180 nM.

Regarding `CN(C(=O)CCCOc1ccc2nc3c(cc2c1)[nH]c(=O)n3C)C1CCCCC1`, the figures for the concentration for a half-maximal effect (EC50) in experiment [2] and in experiment [5] were 33000 nM and 520 nM, respectively.

As for `CC(=O)OCCOc1ccc2nc3[nH]c(=O)[nH]c3cc2c1`, a half-maximal response in experiment [3] (EC50) required 870 nM. In other words, the sub-micromolar range.

`O=C(CCCOc1ccc2nc3[nH]c(=O)[nH]c3cc2c1)N1CCCCC1`: the half-maximal effective concentration (EC50) in experiment [6] was 130 nM.

For `O=C(O)CCCOc1ccc2c(c1)CN1CC(=O)NC1=N2`, the results for the half-maximal effective concentration (EC50) in experiment [2] and in experiment [5] were above 100000 nM and 6910 nM, respectively.

`O=C(CCCOc1ccc2nc3[nH]c(=O)[nH]c3cc2c1)NC1CCCCCC1`: the figures for the concentration for a half-maximal effect (EC50) in experiment [2] and in experiment [5] were 16 nM and 390 nM, respectively.

With `COC(=O)CN(C(=O)CCCOc1ccc2nc3[nH]c(=O)[nH]c3cc2c1)C1CCCCC1`, the EC50 in experiment [2] was determined as 0.7 nM; in experiment [3] it was 6 nM.

For the compound `CN(C(=O)CCCOc1ccc2nc3[nH]c(=O)n(C)c3cc2c1)C1CCCCCC1`, the half-maximal effective concentration (EC50) in experiment [2] is 1220 nM; in experiment [3], 70 nM.

Regarding `Cn1c(=O)[nH]c2nc3ccc(OCCCCC(=O)O)cc3cc21`, the 50% effective concentration (EC50) in experiment [3] is above 100000 nM.

In experiment [3], `O=C(CCCOc1ccc2nc3[nH]c(=O)[nH]c3cc2c1)NC1CCCC1` gave an EC50 of 420 nM.

`N#CCCCOc1ccc2nc3[nH]c(=O)[nH]c3cc2c1`: the EC50 in experiment [2] amounted to 600 nM; in experiment [5], 180 nM.

For the compound `CN(C(=O)CCCOc1ccc2nc3[nH]c(=O)n(C)c3cc2c1)C1CCCCC1`, the EC50 in experiment [3] was determined as 50 nM.

Consider `O=c1[nH]c2cc3cc(OCCCCS(=O)(=O)c4ccccc4)ccc3nc2[nH]1`, for which the 50% effective concentration (EC50) in experiment [2] is 10 nM; in experiment [5] it was 180 nM.

Turning to `CN(C(=O)CCCCCOc1ccc2nc3[nH]c(=O)[nH]c3cc2c1)C1CCCCC1`, the EC50 in experiment [2] worked out at 540 nM; in experiment [5], 20 nM.

For `Cn1c(=O)[nH]c2nc3ccc(OCCCS(=O)(=O)c4ccccc4)cc3cc21`, in experiment [3], the EC50 was 50300 nM.

For the compound `CN(C)C(=O)CCCOc1ccc2nc3[nH]c(=O)[nH]c3cc2c1`, the 50% effective concentration (EC50) in experiment [2] amounted to 190 nM.

In experiment [3], `O=c1[nH]c2cc3cc(CCCO)ccc3nc2[nH]1` had an EC50 of 2470 nM.

For `CN(C(=O)CCCCOc1ccc2nc3[nH]c(=O)[nH]c3cc2c1)C1CCCCCC1`, the EC50 in experiment [2] came to 1 nM; in experiment [5] it was 5 nM.

With `COC(=O)CCCOc1ccc2nc3c(cc2c1)[nH]c(=O)n3C`, the EC50 came to 29800 nM in experiment [2] and 360 nM in experiment [3].

In experiment [3], `CN(C(=O)CCCOc1ccc2nc3c(cc2c1)n(C)c(=O)n3C)C1CCCCC1` showed an EC50 of 26700 nM.

`NC(=O)CCCOc1ccc2nc3[nH]c(=O)[nH]c3cc2c1`: the EC50 in experiment [2] came out at 3020 nM; in experiment [3] it was 6040 nM.

In experiment [3], `O=C(CCCOc1ccc2nc3[nH]c(=O)[nH]c3cc2c1)NC1CCCCC1` gave an EC50 of 40 nM.

On to `COC(=O)CCCCc1ccc2nc3[nH]c(=O)[nH]c3cc2c1`, for which the EC50 was found to be 3000 nM in experiment [2] and 430 nM in experiment [5].

`O=C(O)CCCCc1ccc2nc3[nH]c(=O)[nH]c3cc2c1`: the EC50 in experiment [2] is above 112000 nM; in experiment [5] it was 63100 nM.

For `CC(=O)OCCCCOc1ccc2nc3[nH]c(=O)[nH]c3cc2c1`, in experiment [3], a half-maximal effect (EC50) was put at 950 nM.

Compound `COC(=O)CCCOc1ccc2nc3c(cc2c1)n(C)c(=O)n3C` returned an EC50 in experiment [3] above 87500 nM.

With `CCOCCOc1ccc2nc3[nH]c(=O)[nH]c3cc2c1`, in experiment [3], the half-maximal effective concentration (EC50) is 4840 nM.

As to `O=C(O)CN(C(=O)CCCOc1ccc2nc3[nH]c(=O)[nH]c3cc2c1)C1CCCCC1`, the EC50 came out at 9600 nM in experiment [2] and 910 nM in experiment [5].

Compound `CN(C(=O)CCCCOc1ccc2nc3[nH]c(=O)n(C)c3cc2c1)C1CCCCC1` registered a half-maximal effective concentration (EC50) in experiment [3] of 150 nM.

In the case of `Cn1c(=O)[nH]c2cc3cc(OCCCC(=O)O)ccc3nc21`, the EC50 in experiment [2] was above 26500 nM; in experiment [5] it was 1660 nM.

As to `Cn1c(=O)[nH]c2nc3ccc(OCCCC(=O)O)cc3cc21`, the EC50 in experiment [3] is above 106000 nM.

For the compound `CN(C(=O)CCCOc1ccc2nc3[nH]c(=O)[nH]c3cc2c1)C1CCCCC1`, the EC50 in experiment [2] came out at 7 nM.

Take `CCOC(=O)CCCOc1ccc2nc3[nH]c(=O)[nH]c3cc2c1`: the EC50 in experiment [2] turned out to be 38 nM; in experiment [5], 630 nM.

Regarding `O=C(CCCOc1ccc2nc3[nH]c(=O)[nH]c3cc2c1)NC12C[C@H]3C[C@@H](C1)C[C@@H](C2)C3`, the 50% effective concentration (EC50) in experiment [2] was found to be 20 nM; in experiment [5], 120 nM.

Consider `CCOC(=O)CCc1ccc2nc3[nH]c(=O)[nH]c3cc2c1`, for which, in experiment [3], a half-maximal effect (EC50) was put at 440 nM.

Take `O=C(CCCCc1ccc2nc3[nH]c(=O)[nH]c3cc2c1)N1CCCCC1`: the results for the EC50 in experiment [2] and in experiment [3] were 15500 nM and 420 nM, respectively.

As for `CCOC(=O)COc1ccc2nc3[nH]c(=O)[nH]c3cc2c1`, the EC50 in experiment [3] was 24300 nM.

In experiment [3], `O=C(O)COc1ccc2nc3[nH]c(=O)[nH]c3cc2c1` gave a 50% effective concentration (EC50) of 1910 nM. Against the preceding compound, the EC50 is about 13-fold lower.

In experiment [3], `COC(=O)C=CC=Cc1ccc2nc3[nH]c(=O)[nH]c3cc2c1` had an EC50 of 2690 nM. The EC50 values of the last two compounds are within 1.5-fold of each other.

In the case of `O=C(O)C1CCN(C(=O)CCCOc2ccc3nc4[nH]c(=O)[nH]c4cc3c2)CC1`, the half-maximal effective concentration (EC50) in experiment [2] stood at 45300 nM; in experiment [5], 380 nM.

Compound `O=c1[nH]c2cc3cc(CCCCCO)ccc3nc2[nH]1` came in with a half-maximal effective concentration (EC50) in experiment [3] of 2950 nM.

In experiment [3], `CC(=O)OCCCOc1ccc2nc3[nH]c(=O)[nH]c3cc2c1` came in with a half-maximal effective concentration (EC50) of 330 nM.

In turn, `COC(=O)CCCCOc1ccc2nc3[nH]c(=O)n(C)c3cc2c1` came in with a concentration giving a half-maximal response (EC50) in experiment [3] of 9110 nM.

For the compound `O=c1[nH]c2cc3cc(OCCCCc4nnn[nH]4)ccc3nc2[nH]1`, the EC50 in experiment [2] came out at 51000 nM; in experiment [3], 5400 nM.

In experiment [3], `CCOC(=O)C=Cc1ccc2nc3[nH]c(=O)[nH]c3cc2c1` gave an EC50 of 440 nM.
